Source: the supplement of paper PMC11451515

Tests used:
Conditions in all cases: 48 h
[1] = test system: NOMO1; assay: AUC of viability dose-response curve (% viability x log10 dose units); higher = less sensitive
Summary of the method: (§1)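 Seeding of medium-adapted leukemia cells was at 500 or 1000 cells/well in 1536-well plates, followed by 48 h at 37°C with library compounds in DMSO at 11 threefold doses from 47 μM to 0.79 nM. CellTiter-Glo One luminescence was normalised per plate to DMSO and cell-free wells and fitted as a four-parameter log-logistic function of log10 dose. Area under the curve was integrated by trapezoidal rule, with curves exceeding full viability scaled and curves failing quality control removed.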

[2] = test system: P12-Ichikawa; assay: as above
Summary of the method: as §1

[3] = test system: SEM cells; assay: as above
Summary of the method: as §1

[4] = test system: NOMO1; assay: cell viability relative to DMSO control; higher = less cytotoxic
Summary of the method: (§2)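 Library compounds in DMSO were pin-dosed into 1536-well plates (5 μl) holding NOMO1 or SEM (500 cells/well) or P12-Ichikawa (1000 cells/well) leukemia cells, across an 11-point threefold series of 47 μM to 0.79 nM. Each cell line had been adapted for at least four passages in each medium. CellTiter-Glo One luminescence was read after 48 h at 37°C. Viability is the per-plate percentage relative to DMSO wells, with cell-free wells as background.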

[5] = test system: P12-Ichikawa; assay: as above
Summary of the method: as §2

[6] = test system: SEM cells; assay: as above
Summary of the method: as §2

CNCCN(C)Cc1c[nH]nc1-c1ccc(O[C@H]2C[C@H](OCCC3CCOCC3)C2)cc1
AUC of viability dose-response curve
Conditions	[1]	[2]	[3]
HPLM + 10% dialyzed FBS	457	457	436
RPMI 5 mM glucose + 10% FBS	461	472	397
RPMI 5 mM glucose + 10% dialyzed FBS	465	468	431

cell viability [%]
Conditions	[4]	[5]	[6]
HPLM + 10% dialyzed FBS, 0.000781 µM	115	104	98.5
HPLM + 10% dialyzed FBS, 0.00234 µM	110	120	96.9
HPLM + 10% dialyzed FBS, 0.00702 µM	129	124	116
HPLM + 10% dialyzed FBS, 0.0211 µM	150	119	110
HPLM + 10% dialyzed FBS, 0.0632 µM	136	122	112
HPLM + 10% dialyzed FBS, 0.19 µM	156	122	122
HPLM + 10% dialyzed FBS, 0.569 µM	133	135	116
HPLM + 10% dialyzed FBS, 1.71 µM	128	123	112
HPLM + 10% dialyzed FBS, 5.12 µM	114	95.1	103
HPLM + 10% dialyzed FBS, 15.4 µM	103	90.1	60.6
HPLM + 10% dialyzed FBS, 46.1 µM	121	118	35.9
RPMI 5 mM glucose + 10% FBS, 0.000781 µM	126	–	101
RPMI 5 mM glucose + 10% FBS, 0.00234 µM	123	–	103
RPMI 5 mM glucose + 10% FBS, 0.00702 µM	122	–	147
RPMI 5 mM glucose + 10% FBS, 0.0211 µM	132	–	117
RPMI 5 mM glucose + 10% FBS, 0.0632 µM	149	–	115
RPMI 5 mM glucose + 10% FBS, 0.19 µM	141	–	120
RPMI 5 mM glucose + 10% FBS, 0.569 µM	135	–	107
RPMI 5 mM glucose + 10% FBS, 1.71 µM	131	–	130
RPMI 5 mM glucose + 10% FBS, 5.12 µM	141	–	45.2
RPMI 5 mM glucose + 10% FBS, 15.4 µM	148	–	45.1
RPMI 5 mM glucose + 10% FBS, 46.1 µM	132	–	24.7
RPMI 5 mM glucose + 10% dialyzed FBS, 0.000781 µM	119	–	130
RPMI 5 mM glucose + 10% dialyzed FBS, 0.00234 µM	122	–	111
RPMI 5 mM glucose + 10% dialyzed FBS, 0.00702 µM	140	–	125
RPMI 5 mM glucose + 10% dialyzed FBS, 0.0211 µM	143	–	135
RPMI 5 mM glucose + 10% dialyzed FBS, 0.0632 µM	151	–	156
RPMI 5 mM glucose + 10% dialyzed FBS, 0.19 µM	130	–	118
RPMI 5 mM glucose + 10% dialyzed FBS, 0.569 µM	147	–	145
RPMI 5 mM glucose + 10% dialyzed FBS, 1.71 µM	147	–	156
RPMI 5 mM glucose + 10% dialyzed FBS, 5.12 µM	144	–	112
RPMI 5 mM glucose + 10% dialyzed FBS, 15.4 µM	141	–	73.1
RPMI 5 mM glucose + 10% dialyzed FBS, 46.1 µM	124	–	29.4

N#C[C@@H]1C[C@@H]2C[C@@H]2N1C(=O)[C@@H](N)C12CC3CC(CC(O)(C3)C1)C2
AUC of viability dose-response curve
Conditions	[1]	[2]	[3]
HPLM + 10% dialyzed FBS	400	462	465
RPMI 5 mM glucose + 10% FBS	466	433	426
RPMI 5 mM glucose + 10% dialyzed FBS	450	451	455

cell viability [%]
Conditions	[4]	[5]	[6]
HPLM + 10% dialyzed FBS, 0.000781 µM	139	121	–
HPLM + 10% dialyzed FBS, 0.00234 µM	118	123	–
HPLM + 10% dialyzed FBS, 0.00702 µM	124	115	–
HPLM + 10% dialyzed FBS, 0.0211 µM	134	122	–
HPLM + 10% dialyzed FBS, 0.0632 µM	129	122	–
HPLM + 10% dialyzed FBS, 0.19 µM	129	114	–
HPLM + 10% dialyzed FBS, 0.569 µM	127	122	–
HPLM + 10% dialyzed FBS, 1.71 µM	106	110	–
HPLM + 10% dialyzed FBS, 5.12 µM	96.6	109	–
HPLM + 10% dialyzed FBS, 15.4 µM	32.2	110	–
HPLM + 10% dialyzed FBS, 46.1 µM	5.88	108	–
RPMI 5 mM glucose + 10% FBS, 0.000781 µM	120	132	113
RPMI 5 mM glucose + 10% FBS, 0.00234 µM	109	123	109
RPMI 5 mM glucose + 10% FBS, 0.00702 µM	118	120	105
RPMI 5 mM glucose + 10% FBS, 0.0211 µM	124	120	104
RPMI 5 mM glucose + 10% FBS, 0.0632 µM	109	116	108
RPMI 5 mM glucose + 10% FBS, 0.19 µM	116	123	96.6
RPMI 5 mM glucose + 10% FBS, 0.569 µM	111	128	102
RPMI 5 mM glucose + 10% FBS, 1.71 µM	110	107	87.5
RPMI 5 mM glucose + 10% FBS, 5.12 µM	113	111	79
RPMI 5 mM glucose + 10% FBS, 15.4 µM	112	110	82.2
RPMI 5 mM glucose + 10% FBS, 46.1 µM	67.3	97.6	79.4
RPMI 5 mM glucose + 10% dialyzed FBS, 0.000781 µM	122	122	118
RPMI 5 mM glucose + 10% dialyzed FBS, 0.00234 µM	125	128	115
RPMI 5 mM glucose + 10% dialyzed FBS, 0.00702 µM	106	121	110
RPMI 5 mM glucose + 10% dialyzed FBS, 0.0211 µM	125	118	110
RPMI 5 mM glucose + 10% dialyzed FBS, 0.0632 µM	131	124	111
RPMI 5 mM glucose + 10% dialyzed FBS, 0.19 µM	123	114	110
RPMI 5 mM glucose + 10% dialyzed FBS, 0.569 µM	132	121	115
RPMI 5 mM glucose + 10% dialyzed FBS, 1.71 µM	122	123	108
RPMI 5 mM glucose + 10% dialyzed FBS, 5.12 µM	118	112	108
RPMI 5 mM glucose + 10% dialyzed FBS, 15.4 µM	97.9	111	117
RPMI 5 mM glucose + 10% dialyzed FBS, 46.1 µM	44.6	108	94.5
